Reference: US8968700B2, “Imaging of protease activity in live cells using activity based probes” (The Board of Trustees of the Leland Stanford Junior …, priority 2005, dated 2015)

Experiments:
NIH-3T3 cells = assay: Imaging protease activity in live cells, fluorescence microscopy; type: cell-based, mouse; conditions: JPM-OEt 50 μM, 1 hour
Experimental: In these experiments (data not shown), cultures of NIH-3T3 cells were either pre-treated with the general papain family protease inhibitor JPM-OEt (50 μM) or with control DMSO (0.1%) for 1 hour and labeled by addition of GB111 or GB117 (1 μM) to growth media for 4-5 hours. The acidotropic lysosomal marker LysoTracker (which produces a green color) was added and cells were imaged using an inverted fluorescent microscope (Nikon). Cells were also treated and analyzed after being washed for 3 hours in growth media containing JPM-OEt (50 μM) or DMSO (0.1%) prior to imaging. As a result, red fluorescence—indicating protease activity, green fluorescence—indicating lysosomal compartments, and yellow fluorescence resulting from overlap in green and red signals was observed.
NIH 3T3 cells (165,000 cells/well) were seeded on glass cover slips in six-well tissue culture plates containing growth medium 1 day before treatment. Cells were either pretreated with the general papain family protease inhibitor JPM-OEt (50 μM) or with control DMSO (0.1%) for 1 hour. Cells were labeled by addition of GB111 or GB117 (1 μM) to growth media at pH 7.4 for 4-5 hours. Cells were transferred to growth media without phenol red. LysoTracker (50 nM final concentration) was added minutes before cells were imaged using an inverted fluorescent microscope (Nikon Diaphot-300 microscope with the 60 (NA 1.4) objective). […]

MCF-10A cells = assay: Imaging in three-dimensional cell culture on Cultrex, confocal microscopy; type: cell-based; conditions: JPM-OEt 50 μM
Experimental: In these experiments, reconstituted basement membrane, Cultrex (Trevigen) was mixed with 1 μM GB111 or GB117 with or without JPM-OEt (50 μM). MCF-10A cells were grown three-dimensional cultures on Cultrex containing probes with or without inhibitor for 3 days then imaged by confocal microscopy using a water immersion lens (Zeiss).
MCF-10A cells were grown in 3D culture on reconstituted basement membrane extracted from an EHS mouse sarcoma (Cultrex from Trevigen) as previously described 35. GB117 or GB111 was added to Cultrex (1 μM final concentration) upon cell seeding and day 3 structures were imaged as described below. Day 8 structures grown Cultrex without probes were treated with 1 μM GB111 for 3 hours in assay media (culture media with 2% horse serum and 5 ng/mL EGF). Cells were washed overnight in assay media, fixed and imaged as described below.

[1] = test system: endogenous cathepsin activity; assay: In vivo whole animal imaging with spectral imager; parameters: species or system mouse; conditions: 100 mg/kg IP 2 hours prior to GB117
Source text: Photographs illustrating fluorescence imaging of endogenous cathepsin activity in live mice using the quenched activity-based probe GB117 were obtained with the CR1-Maestro™ Spectral imager, and comparisons were made between mice (a) with no probe, (b) with GB117 and (c) with GB117 plus the general cathepsin inhibitor JPM-OEt.
Areas of more intense labeling in the center of the animal (likely labeling of the liver, an organ with high cathepsin activity) were seen.
This work utilized a spectral imager (CRI Maestro) at the small animal imaging facility at Stanford. This new technology makes it possible to acquire the entire spectrum of light emission. Following spectral acquisition, the wavelengths specific to the injected probe can be defined, and autofluorescence subtracted. […] Techniques for spectral imaging in connection with multiple chromosome labels (“chromosome painting”) are known and may be adapted for use in vivo. See U.S. Pat. Nos. 5,936,731 and 6,690,817. A spectral imager is capable of collecting spatial (imaging) information as well as spectral information at every pixel in the image. This 3 dimensional data set enables the detailed study of both absorptive and fluorescent, histological and cellular material. […]

human cathepsin L [2] = biological target: T1, human cathepsin L (Homo sapiens, UniProt P07711); assay: Recombinant cathepsin labeling, SDS-PAGE fluorescent scan; type: biochemical; parameters: gift from Dr. V. Turk, Jozef Stefan Institute, Slovenia; conditions: labeling by GB111 and GB117
T1 sequence (P07711 114-333): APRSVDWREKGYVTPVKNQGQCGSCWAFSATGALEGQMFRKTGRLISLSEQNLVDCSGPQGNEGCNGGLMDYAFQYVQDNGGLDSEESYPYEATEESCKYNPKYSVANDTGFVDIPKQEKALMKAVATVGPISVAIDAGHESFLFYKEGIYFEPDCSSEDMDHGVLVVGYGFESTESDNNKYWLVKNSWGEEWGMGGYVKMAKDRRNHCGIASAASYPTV
Experimental: (§1) 0.7 μg recombinant human Cathepsin L (a generous gift from Dr. V. Turk Jozef, Stefan institute Slovenia) or 0.4 μg bovine Cathepsin B (Sigma) in reaction buffer (50 mM acetate, 2 mM DTT and 5 mM MgCl2, pH 5.5) were treated with 25 μM JPM-OEt for 30 min (indicated samples) at room temperature. Increasing concentrations of GB111, GB117, were added to appropriate samples for 30 min. The reaction was stopped by adding sample buffer X4 (40% glycerol, 0.2M Tris/HCl 6.8, 20% β-mercaptoethanol, 12% SDS and 0.4 mg/ml bromophenol blue). Half of the sample was separated on a 12% SDS gel and scanned by a Typhoon laser flatbed scanner at 532/580.

bovine cathepsin B [3] = biological target: T2, bovine cathepsin B (Bos taurus, UniProt P07688); assay: as above; type: biochemical; conditions: labeling by GB111 and GB117
Experimental: as §1

bovine cathepsin B [4] = biological target: T2, bovine cathepsin B; assay: Kinetics of inhibition, progress curve method (kass); type: biochemical; conditions: bovine cathepsin B 1 nM; substrate Z-RR-AMC 10 μM; pseudo-first order
Experimental: (§2) The kinetics of inhibition was determined by progress curve method under pseudo-first order conditions with at least 10-fold molar excess of inhibitor. Recorded progress curves were analyzed by non-linear regression according to the following equation (Ref 36).
(§3) [P]=vz(1−e^−k·t)/k where [P] is the product, vz is the velocity at time zero and k is the pseudo first order rate constant. Apparent rate constant (kapp) was determined from the slope of plot k versus [I]. Due to irreversible and competitive mechanism of inhibition, kapp was converted to the association constant (kass) using the equation below: kass=kapp(1+[S]/KM)
(§4) Activity of human cathepsin L was measured using the fluorogenic substrate Z-FRAMC37 (Bachem, USA) (Km=7.1 μM) and cathepsin B was assayed against the fluorogenic substrate Z-RR-AMC38 (Bachem, USA) (Km=114 μM). Concentration of substrates during the measurement was 10 μM. Cathepsins B and L (1 nM final concentrations) were incubated with inhibitor concentrations, ranging from 10 to 2000 nM, in the presence of 10 μM of appropriate substrate. Total volume during the measurement was 100 μl. Increase of fluorescence (370 nm excitation, […] emission) was continuously monitored for 30 minutes by Spectramax M5 spectrofluorimeter.
(§5) (Molecular Devices, USA) and inhibition curves were recorded. DMSO concentration during all measurements was 3.5%.

human cathepsin L [5] = biological target: T1, human cathepsin L; assay: as above; type: biochemical; conditions: human cathepsin L 1 nM; substrate Z-FR-AMC 10 μM; pseudo-first order
Experimental: as §2, §3, §4, §5

[6] = test system: MDA MB-231 or MDA MB-435 cells; assay: Labeling of active cysteine proteases in intact monolayers of tumor cell lines, SDS-PAGE; type: cell-based; conditions: 1 μM, four hours
Experimental: GB123 (1 μg) dissolved in DMSO/PBS was injected via the tail vein. Fluorescent images of living mice taken using an IVIS 200 imaging system equipped with a Cy5.5 filter at various time points after GB123 injection show localization of the probe to a tumor site. […] Labeling of active cysteine proteases in cell lines used to generate the tumors was carried out on SDS-PAGE. Intact monolayers of MDA MB-231 or MDA MB-435 cells were either pre-treated with the general papain family protease inhibitor JPM-OEt (50 μM) or with control DMSO (0.1%) for one hour and labeled by addition of GB123 (1 μM) to culture media for four hours. Crude detergent lysates were normalized for total protein, separated by SDS-PAGE, and visualized by scanning of the gel with a Typhoon flatbed laser scanner. […] All of these specific activities were sensitive to pre-treatment with the general inhibitor JPM-OEt. […] Plotted values are expressed as percentage of fluorescence measured relative to the signal observed at two hours post injection of probe.

[7] = test system: protease species in tumor lysates; assay: Biochemical analysis of in vivo labeled tumors, SDS-PAGE of lysates; parameters: species or system mouse; conditions: FIG. 6a
Source text: Tumors from mice described in Example 7 were lysed in a detergent buffer. Crude lysates were normalized for total protein, separated by SDS-PAGE, and visualized by scanning of the gel with a Typhoon flatbed laser scanner, fluorescent images of corresponding mice are shown below gel images, where spotted areas indicate fluorescent readings, as obtained in Example 7. […] Lysates from a C2C12/ras tumor locally injected with DMSO/PBS were immuno precipitated using anti cathepsin B or cathepsin L antibodies as indicated. Samples were separated by SDS-PAGE, and visualized by scanning of the gel with a Typhoon flatbed laser scanner, as shown in FIG. 6b. The antibodies precipitated cat B and cat L complexes, indicating specific labeling of these proteases.

MDA-MB 231 tumors = assay: In vivo imaging of cysteine protease activity in tumor-bearing mice (IVIS 200); parameters: species or system mouse; conditions: tail vein injection
Experimental: Three weeks prior to imaging, MDA-MB 435 or MDA-MB 231 cells (3×10^6 cell per site) were subcutaneously injected into the back left and right side of a Balb-c nude mouse. As is known in the literature, MDA-MB-435, expresses ALP56 (aspartic-like protease 56 kDa), which has homology to aspartic proteases, such as cathepsin D. Similarly, a trypsin-like protease secreted from MDA MB-231 cells can promote cell migration through autocrine activation of PAR-2. GB123 (1 μg) dissolved in DMSO/PBS was injected via the tail vein. Fluorescent images of living mice taken using an IVIS 200 imaging system equipped with a Cy5.5 filter at various time points after GB123 injection show localization of the probe to a tumor site. […] Labeling of active cysteine proteases in cell lines used to generate the tumors was carried out on SDS-PAGE. Intact monolayers of MDA MB-231 or MDA MB-435 cells were either pre-treated with the general papain family protease inhibitor JPM-OEt (50 μM) or with control DMSO (0.1%) for one hour and labeled by addition of GB123 (1 μM) to culture media for four hours. Crude detergent lysates were normalized for total protein, separated by SDS-PAGE, and visualized by scanning of the gel with a Typhoon flatbed laser scanner. […] Plotted values are expressed as percentage of fluorescence measured relative to the signal observed at two hours post injection of probe.

tumor tissues = assay: Ex vivo imaging of tumor tissue cryo-sections; type: in vivo, mouse; conditions: 24 hours after probe injection, Cy5 channel
Experimental: Tumors from mice injected with either GB123 or GB125 were extracted 24 hours after probe injection and molded in OCT placed in tert-butanol cooled with liquid nitrogen. Cryo-sections (10 μm) of tumors were mounted with Fluoromount and imaged using a Zeiss 200M fluorescent microscope using a 40× lens and a Cy5 filter.

[8] = test system: MDA-MB 231 or C2C12/ras tumors; assay: In vivo labeling of live mice with active probe and control inactive probe; parameters: species or system mouse
Experimental: Two to four weeks prior to imaging MDA-MB 231 or C2C12/ras cells (a myoblast cell line wherein ras blocks differentiation) at 2×10^6 cell per spot were injected subcutaneous to the back of Balb-c nude mice.
Mice bearing tumors of similar size were injected intravenous via the tail vein with a DMSO/PBS solution of GB123 or GB125 (0.8-1.1 μg/gr mice). DMSO/PBS was locally injected directly into tumors in indicated mice, 15 minutes prior to probe injection. Fluorescent intensity as photons per second per centimeter square per steradian (p/s/cm^2/sr) was recorded from living mice, (data not shown). Images were taken at various time points (e.g., 1 min., 5 hrs. and 22 hrs.) after probe injection using an IVIS 200 imaging system equipped with a Cy5.5 filter.

JPM-OEt
effect of inhibitor pre-treatment on GB117 labeling pattern (NIH-3T3 cells): blocked
effect of inhibitor on GB117 staining in 3D culture (MCF-10A cells): completely blocked
effect of inhibitor pre-treatment on GB117 signal in live mouse [1]: significantly reduced fluorescent signal in the entire animal
effect of inhibitor pre-treatment on probe labeling (human cathepsin L [2]): specifically competed
effect of inhibitor pre-treatment on probe labeling (bovine cathepsin B [3]): specifically competed

Cc1cccc(C)c1C(=O)OCC(=O)[C@H](CCCCN)NC(=O)[C@H](Cc1ccccc1)NC(=O)OCc1ccccc1 [GB111-NH2]
kass (inhibition rate constant) (bovine cathepsin B [4]): 38500 ± 7700 M^−1s^1
kass (inhibition rate constant) (human cathepsin L [5]): 296400 ± 18100 M^−1s^1

CCN1C(=CC=CC=CC2=[N+](CCCCCC(=O)NCCCC[C@H](NC(=O)[C@H](Cc3ccccc3)NC(=O)OCc3ccccc3)C(=O)COC(=O)c3c(C)cccc3C)c3ccc(S(=O)(=O)O)cc3C2(C)C)C(C)(C)c2cc(S(=O)(=O)O)ccc21 [GB123]
labeling of cysteine protease activities in cell lines [6]: increased labeling of a number of cysteine protease activities in MDA-MB 231 relative to the MDA-MB 435 cells
fluorescence of labeled bands in tumor lysates [7]: significant fluorescence
fluorescent signal in tumor (MDA-MB 231 tumors): accumulation of fluorescent signal was observed over time
fluorescent signal in tumor cryo-sections (tumor tissues): accumulation of the specific fluorescent signal
fluorescence after 1 min. ([8]; MDA-MB-231 injected mice): showed fluorescence
retention of observable signal ([8]; intravenous via tail vein, 0.8-1.1 μg/gr): at least 22 hrs
